Test results published in patent publication US20080176936A1, “Classes of Compounds that Interact with Integrins” (priority 2005, published 2008).

Tests used:
αllbβ3 integrin = target: T1, αllbβ3 integrin (Homo sapiens, UniProt P05106+P08514); test: ELISA: inhibition of binding of αllbβ3 integrin membrane preparation to coated extracellular matrix protein; conditions: human platelet membrane preparation
T1 construct: Human platelet membrane preparations were used as a source of αllbβ3 integrin; from tissue; host or cells: human platelets (membrane preparation)
Description: (§1) An ELISA assay based on the published method of Bethert et al., 2000, J Biol Chem 275, 33308-23, was employed.
(§2) Briefly, appropriate microtitre plates were coated with either Fibrinogen or Vitronectin (10 μg/well). These extracellular matrix proteins contain the RGD amino acid sequence that is recognized by αllbβ3 integrin. Human platelet membrane preparations were used as a source of αllbβ3 integrin and the cell line WM-115 was used as a source of αVβ3 integrin. Inhibition of the binding of αllbβ3 integrin containing membrane preparations to the extracellular matrix protein was determined by pre-incubating the platelet membrane preparation with test or control compounds. The binding of the αllbβ3 integrin containing membrane was the quantitated by using a rabbit anti-integrinβ3 antibody, a horse radish peroxidase coupled second antibody and a standard colorimetric detection system.

αVβ3 integrin = target: T2, αVβ3 integrin (Homo sapiens, UniProt P05106+P06756); test: ELISA: inhibition of binding of αVβ3 integrin (source WM-115 cell line) to coated extracellular matrix protein; conditions: WM-115 cell line as integrin source
T2 construct: the cell line WM-115 was used as a source of αVβ3 integrin; endogenous in cells; host or cells: WM-115 cell line
Description: as §1, §2

T1 sequence (P08514 32-887 limits assumed): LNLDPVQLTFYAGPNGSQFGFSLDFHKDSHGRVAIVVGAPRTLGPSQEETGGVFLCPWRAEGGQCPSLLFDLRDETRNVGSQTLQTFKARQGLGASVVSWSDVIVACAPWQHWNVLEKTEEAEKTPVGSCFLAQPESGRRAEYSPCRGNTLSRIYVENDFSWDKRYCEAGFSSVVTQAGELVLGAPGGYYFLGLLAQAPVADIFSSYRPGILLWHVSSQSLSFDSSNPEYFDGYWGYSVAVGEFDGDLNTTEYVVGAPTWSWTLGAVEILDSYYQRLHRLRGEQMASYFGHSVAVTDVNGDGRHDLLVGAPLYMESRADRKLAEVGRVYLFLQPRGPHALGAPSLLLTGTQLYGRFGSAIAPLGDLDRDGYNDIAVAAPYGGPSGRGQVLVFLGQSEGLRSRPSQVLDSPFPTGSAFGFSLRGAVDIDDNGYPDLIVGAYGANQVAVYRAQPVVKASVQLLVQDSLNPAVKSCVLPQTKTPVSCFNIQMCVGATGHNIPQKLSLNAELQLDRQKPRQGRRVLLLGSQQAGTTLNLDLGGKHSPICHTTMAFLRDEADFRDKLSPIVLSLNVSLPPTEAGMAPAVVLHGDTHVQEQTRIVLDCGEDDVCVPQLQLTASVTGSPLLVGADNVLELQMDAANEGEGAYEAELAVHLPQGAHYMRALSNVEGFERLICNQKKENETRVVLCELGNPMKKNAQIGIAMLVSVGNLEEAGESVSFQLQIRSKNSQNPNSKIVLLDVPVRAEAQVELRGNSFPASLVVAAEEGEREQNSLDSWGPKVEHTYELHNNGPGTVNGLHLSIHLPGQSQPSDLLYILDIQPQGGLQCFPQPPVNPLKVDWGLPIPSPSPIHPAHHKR
T1 sequence (P08514 891-1039 partner limits assumed): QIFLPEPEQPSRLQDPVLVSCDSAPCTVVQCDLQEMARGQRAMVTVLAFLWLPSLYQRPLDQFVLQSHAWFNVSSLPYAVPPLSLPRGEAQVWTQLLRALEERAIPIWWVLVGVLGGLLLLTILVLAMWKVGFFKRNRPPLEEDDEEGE
T1 sequence (P05106 27-788): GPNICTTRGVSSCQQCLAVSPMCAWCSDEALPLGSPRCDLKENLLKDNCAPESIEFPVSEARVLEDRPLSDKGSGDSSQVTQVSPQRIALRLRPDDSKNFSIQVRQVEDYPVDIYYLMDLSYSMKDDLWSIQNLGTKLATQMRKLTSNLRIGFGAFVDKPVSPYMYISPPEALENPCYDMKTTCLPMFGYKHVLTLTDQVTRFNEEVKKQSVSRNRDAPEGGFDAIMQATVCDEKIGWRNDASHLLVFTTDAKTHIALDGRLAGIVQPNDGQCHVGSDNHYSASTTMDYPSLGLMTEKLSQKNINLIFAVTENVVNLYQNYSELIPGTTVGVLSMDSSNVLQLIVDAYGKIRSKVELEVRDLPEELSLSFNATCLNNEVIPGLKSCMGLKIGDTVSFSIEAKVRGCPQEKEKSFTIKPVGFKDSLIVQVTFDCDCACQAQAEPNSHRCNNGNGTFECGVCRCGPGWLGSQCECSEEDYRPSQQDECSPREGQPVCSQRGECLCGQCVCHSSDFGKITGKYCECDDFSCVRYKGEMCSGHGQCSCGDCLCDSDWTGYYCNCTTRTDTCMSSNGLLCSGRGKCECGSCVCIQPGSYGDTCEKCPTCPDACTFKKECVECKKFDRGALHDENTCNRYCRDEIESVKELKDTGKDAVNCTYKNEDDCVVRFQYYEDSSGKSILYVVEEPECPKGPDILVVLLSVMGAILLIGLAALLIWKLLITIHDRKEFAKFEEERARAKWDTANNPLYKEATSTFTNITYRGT
T2 sequence (P06756 31-889 limits assumed): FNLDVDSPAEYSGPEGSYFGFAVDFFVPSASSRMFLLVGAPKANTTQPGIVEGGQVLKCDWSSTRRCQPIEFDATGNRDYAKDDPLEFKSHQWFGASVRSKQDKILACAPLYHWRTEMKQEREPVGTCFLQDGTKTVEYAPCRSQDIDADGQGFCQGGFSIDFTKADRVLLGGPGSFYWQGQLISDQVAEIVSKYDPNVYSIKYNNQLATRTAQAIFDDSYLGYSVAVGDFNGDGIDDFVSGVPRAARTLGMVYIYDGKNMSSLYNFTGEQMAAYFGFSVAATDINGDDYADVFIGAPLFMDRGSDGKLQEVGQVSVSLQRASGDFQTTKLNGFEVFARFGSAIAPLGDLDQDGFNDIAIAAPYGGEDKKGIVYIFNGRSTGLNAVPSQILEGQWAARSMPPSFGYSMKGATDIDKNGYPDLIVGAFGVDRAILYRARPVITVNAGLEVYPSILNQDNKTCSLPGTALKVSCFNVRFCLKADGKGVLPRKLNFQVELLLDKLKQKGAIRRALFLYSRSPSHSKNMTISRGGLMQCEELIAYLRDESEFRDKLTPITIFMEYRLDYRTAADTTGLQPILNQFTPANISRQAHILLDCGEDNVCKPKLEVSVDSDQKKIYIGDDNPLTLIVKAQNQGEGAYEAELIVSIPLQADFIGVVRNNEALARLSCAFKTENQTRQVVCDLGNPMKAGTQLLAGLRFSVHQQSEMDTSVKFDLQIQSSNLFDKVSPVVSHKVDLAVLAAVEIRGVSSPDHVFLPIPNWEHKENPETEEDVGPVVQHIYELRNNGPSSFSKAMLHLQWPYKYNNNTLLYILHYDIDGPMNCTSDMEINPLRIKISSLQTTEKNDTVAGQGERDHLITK
T2 sequence (P06756 891-1048 partner limits assumed): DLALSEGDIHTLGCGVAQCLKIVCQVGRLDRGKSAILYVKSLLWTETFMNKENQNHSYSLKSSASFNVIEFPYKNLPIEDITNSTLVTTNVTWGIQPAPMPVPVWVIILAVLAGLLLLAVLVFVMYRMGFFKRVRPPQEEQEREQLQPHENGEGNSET
T2 sequence (P05106 27-788): as the sequence (P05106 27-788) above

SMILES	INHIBITION @ 250 uM RECEPTOR allBb3 SUBSTRATE FIBRINOGEN (αllbβ3 integrin)	INHIBITION 250 uM RECEPTOR allBb3 SUBSTRATE VITRONECTIN (αllbβ3 integrin)	INHIBITION 250 uM RECEPTOR aVb3 SUBSTRATE FIBRINOGEN (αVβ3 integrin)
COC1OC(COCc2ccc(Br)cc2)C(O)C(OCc2cccc(N)c2)C1NC(=O)CCC(=O)O (single isomer, unassigned) [Compound 25]	+ (36% to 60% inhibition at 250 micromolar)	+++ (81% to 100% inhibition at 250 micromolar)	+++ (81% to 100% inhibition at 250 micromolar)
Nc1cccc(COC2C(O)C(COCc3ccc(Br)cc3)OC(O)C2NC(=O)CCC(=O)O)c1 (single isomer, unassigned) [Compound 26]	+ (36% to 60% inhibition at 250 micromolar)	+++ (81% to 100% inhibition at 250 micromolar)	++ (61% to 80% inhibition at 250 micromolar)
COC1OC(COCC(=O)O)C(O)C(OCc2cccc(N)c2)C1NC(=O)c1ccccc1 (single isomer, unassigned) [Compound 27]	++ (61% to 80% inhibition at 250 micromolar)	+++ (81% to 100% inhibition at 250 micromolar)	+++ (81% to 100% inhibition at 250 micromolar)
COC1OC(COCC(=O)O)C(O)C(OCc2cccc(N)c2)C1NC(=O)c1ccccc1 (single isomer, unassigned) [Compound 28]	+ (36% to 60% inhibition at 250 micromolar)	+++ (81% to 100% inhibition at 250 micromolar)	+++ (81% to 100% inhibition at 250 micromolar)
Nc1cccc(COC2C(O)C(COCC(=O)O)OC(O)C2NC(=O)c2ccccc2)c1 (single isomer, unassigned) [Compound 29]	++ (61% to 80% inhibition at 250 micromolar)	+++ (81% to 100% inhibition at 250 micromolar)	+++ (81% to 100% inhibition at 250 micromolar)
COC1OC(COCc2ccc(C(=O)O)cc2)C(O)C(OCc2cccc(N)c2)C1NC(=O)c1ccc(Cl)cc1 (single isomer, unassigned) [Compound 30]	++ (61% to 80% inhibition at 250 micromolar)	+++ (81% to 100% inhibition at 250 micromolar)	+++ (81% to 100% inhibition at 250 micromolar)
COC1O[C@H](COCc2ccc(C(=O)O)cc2)[C@@H](O)[C@H](OCc2cccc(N)c2)[C@H]1NC(=O)c1ccc(Cl)cc1 (single isomer, unassigned) [Compound 31]	+++ (81% to 100% inhibition at 250 micromolar)	+++ (81% to 100% inhibition at 250 micromolar)	+++ (81% to 100% inhibition at 250 micromolar)
CCOC1O[C@H](COCC(=O)O)[C@@H](O)[C@H](OCc2ccccc2)[C@H]1NC(=O)c1cccc(N)c1 (single isomer, unassigned) [Compound 32]	+ (36% to 60% inhibition at 250 micromolar)	+++ (81% to 100% inhibition at 250 micromolar)	− (0% to 35% inhibition at 250 micromolar)
Nc1cccc(C(=O)N[C@H]2C(O)O[C@H](COCC(=O)O)[C@@H](O)[C@@H]2OCc2ccccc2)c1 (single isomer, unassigned) [Compound 33]	++ (61% to 80% inhibition at 250 micromolar)	− (0% to 35% inhibition at 250 micromolar)	− (0% to 35% inhibition at 250 micromolar)
Nc1cccc(C(=O)N[C@H]2C(O)O[C@H](COCC(=O)O)[C@@H](O)[C@@H]2OCc2ccccc2)c1 (single isomer, unassigned) [Compound 34]	+ (36% to 60% inhibition at 250 micromolar)	+++ (81% to 100% inhibition at 250 micromolar)	+++ (81% to 100% inhibition at 250 micromolar)
CCOC1O[C@H](COCc2ccc(C(=O)O)cc2)[C@@H](O)[C@H](OCc2ccccc2)[C@H]1NC(=O)c1cccc(N)c1 (single isomer, unassigned) [Compound 35]	+ (36% to 60% inhibition at 250 micromolar)	+++ (81% to 100% inhibition at 250 micromolar)	+++ (81% to 100% inhibition at 250 micromolar)
CCOC1O[C@H](COCc2cccc(N)c2)[C@@H](O)[C@H](OCc2ccccc2)[C@H]1NC(=O)c1ccc(C(=O)O)cc1 (single isomer, unassigned) [Compound 36]	+ (36% to 60% inhibition at 250 micromolar)	+++ (81% to 100% inhibition at 250 micromolar)	+++ (81% to 100% inhibition at 250 micromolar)
CCOC1O[C@H](COCc2cccc(N)c2)[C@@H](O)[C@H](OCc2ccccc2)[C@H]1NC(=O)c1ccc(C(=O)O)cc1 (single isomer, unassigned) [Compound 37]	+ (36% to 60% inhibition at 250 micromolar)	+++ (81% to 100% inhibition at 250 micromolar)	+++ (81% to 100% inhibition at 250 micromolar)
CCOC1O[C@H](COCC(=O)O)[C@@H](O)[C@H](OCc2ccc(Br)cc2)[C@H]1NC(=O)c1cccc(N)c1 (single isomer, unassigned) [Compound 38]	++ (61% to 80% inhibition at 250 micromolar)	+++ (81% to 100% inhibition at 250 micromolar)	+++ (81% to 100% inhibition at 250 micromolar)
CCOC1O[C@H](COCC(=O)O)[C@@H](O)[C@H](OCc2ccc(Br)cc2)[C@H]1NC(=O)c1cccc(N)c1 (single isomer, unassigned) [Compound 39]	+ (36% to 60% inhibition at 250 micromolar)	+++ (81% to 100% inhibition at 250 micromolar)	+++ (81% to 100% inhibition at 250 micromolar)
CCOC1O[C@H](COCc2ccc(C(=O)O)cc2)[C@@H](O)[C@H](OCc2ccc(Br)cc2)[C@H]1NC(=O)c1cccc(N)c1 (single isomer, unassigned) [Compound 40]	+++ (81% to 100% inhibition at 250 micromolar)	+++ (81% to 100% inhibition at 250 micromolar)	+++ (81% to 100% inhibition at 250 micromolar)
CCOC1O[C@H](COCc2ccc(C(=O)O)cc2)[C@@H](O)[C@H](OCc2ccc(Br)cc2)[C@H]1NC(=O)c1cccc(N)c1 (single isomer, unassigned) [Compound 41]	+ (36% to 60% inhibition at 250 micromolar)	++ (61% to 80% inhibition at 250 micromolar)	+ (36% to 60% inhibition at 250 micromolar)
Nc1cccc(C(=O)N[C@H]2C(O)O[C@H](COCc3ccc(C(=O)O)cc3)[C@@H](O)[C@@H]2OCc2ccc(Br)cc2)c1 (single isomer, unassigned) [Compound 42]	+ (36% to 60% inhibition at 250 micromolar)	+++ (81% to 100% inhibition at 250 micromolar)	− (0% to 35% inhibition at 250 micromolar)
CCOC1O[C@H](COCc2cccc(N)c2)[C@@H](O)[C@H](OCc2ccc(Br)cc2)[C@H]1NC(=O)CCC(=O)O (single isomer, unassigned) [Compound 44]	++ (61% to 80% inhibition at 250 micromolar)	− (0% to 35% inhibition at 250 micromolar)	+ (36% to 60% inhibition at 250 micromolar)
CCOC1O[C@H](COCc2cccc(N)c2)[C@@H](O)[C@H](OCc2ccc(Br)cc2)[C@H]1NC(=O)CCC(=O)O (single isomer, unassigned) [Compound 45]	++ (61% to 80% inhibition at 250 micromolar)	+++ (81% to 100% inhibition at 250 micromolar)	+++ (81% to 100% inhibition at 250 micromolar)
Nc1cccc(COC[C@H]2OC(O)[C@H](NC(=O)CCC(=O)O)[C@@H](OCc3ccc(Br)cc3)[C@@H]2O)c1 (single isomer, unassigned) [Compound 46]	+ (36% to 60% inhibition at 250 micromolar)	+++ (81% to 100% inhibition at 250 micromolar)	+++ (81% to 100% inhibition at 250 micromolar)
Nc1cccc(COC[C@H]2OC(O)[C@H](NC(=O)CCC(=O)O)[C@@H](OCc3ccc(Br)cc3)[C@@H]2O)c1 (single isomer, unassigned) [Compound 47]	+ (36% to 60% inhibition at 250 micromolar)	+++ (81% to 100% inhibition at 250 micromolar)	− (0% to 35% inhibition at 250 micromolar)
